“Also recorded” adds a separate entry of the source.
What was measured:
PC3 cells [1] = assay: Cell viability assay (MTS); format: cell-based, human; details: compound 10 μM, 24 hours
Method: FIG. 3C is a graph depicting a viability study of PC3 cells treated for 24 hours with inhibitor compounds 9b, 13 and 14, at 10 μM. MTS assays were conducted for 4 hours and the results were expressed as % of viable treated cells against the control cells. Each bar represents mean±SEM (n=3).
Cell viability assays were performed using CellTiter 96® AQueous One Solution Cell Proliferation Assay (MTS) from Promega, according to the manufacture's protocol. Briefly, 5.0×10^4 cells/well were plated in a 96 well plates and incubated in a 5% CO2 environment at 37° C. overnight. After 24 hours the medium was replaced with fresh medium, containing several compounds at the appropriate concentrations. Diluted DMSO was used as a control. MTS assays were performed after 24 hours and the absorbance read at 490 nm, using a spectrophotometer.

PC3 cells [2] = assay: Cell viability assay (MTS); format: cell-based, human; details: 24 hours
PC3 cells [3] = assay: Transwell migration assay in PC3 cells; format: cell-based, human
Method: (§1) Human prostate cancer cell lines (DU145 and PC3) were obtained from American Type Culture Collection (ATCC) (Rockville, MD). DU145 and PC3 are androgen independent cell lines, derived from brain and bone metastatic sites, respectively. They were maintained in Minimum Essential Medium, supplemented with 5% FBS, in a 5% CO2 environment at 37° C. E006AA cells are derived from localized prostate cancer in a patient. These cells were maintained in Dulbecco's Modified Eagle Medium, supplemented with 5% FBS, in a 5% CO2 environment at 37° C.
For biological assays, the compounds were dissolved in DMSO at a starting concentration of 0.05 mM (compound 12) and 0.1 mM (compounds 9a-b, 13 and 14) and then diluted in culture media to the final concentrations used for the assays.
(§2) In vitro cell migration and invasion assays were conducted using 24-well transwell inserts (8 μm). The transwell inserts were coated with […] of rat tail collagen for migration assays, and with 50 μl of a 1:4 Matrigel/Coating buffer solution for invasion assays. Cells were suspended at the appropriate density in appropriate media and treated with the inhibitors, at specific concentrations. For migration assays, EGF was used as a chemoattractant (10 ng/ml) for PC3, DU145, E006AA and SKOV3 cells; 10% FBS was used for MCF7 cells. The plates were incubated at 37° C. for 5 hours (DU145, PC3 and SKOV3), 24 hours (E006AA) or 48 hours (MCF7) for migration assays, and 48 hours for invasion assays. After fixation, the cells were stained with 3 ng/ml of DAPI and images of five non-overlapping fields were captured using Axiovert 200M, Carl Zeiss (Thornwood, NY) microscope. The number of stained nuclei were determined with automatic counting using image analysis software (ZEN 2012; Carl Zeiss). Results were expressed as migration or invasion index defined as: the average number of cells per field for test substance/the average number of cells per field for the medium control.

PC3 cells [4] = assay: Transwell migration assay in PC3 cells; format: cell-based, human; details: absence of EGF stimulus
E006AA cells = assay: Transwell migration assay in E006AA cells; format: cell-based, human; details: compound 10 μM
Method: as §1
as §2, with “The plates were incubated at 37° C. for 5 hours (DU145, PC3 and SKOV3), 24 hours (E006AA) or 48 hours (MCF7) for migration assays, and 48 hours for invasion assays. After fixation, the cells were stained with 3 ng/ml of DAPI and images of five non-overlapping fields were captured using Axiovert 200M, Carl Zeiss (Thornwood, NY) microscope.” left out

PC3 cells [5] = assay: Transwell (Matrigel) invasion assay in PC3 cells; format: cell-based, human; details: compound 10 μM, 48 hours
Method: as §2

Gαi2 = molecular target: T1, Gαi2 (Homo sapiens, UniProt P04899); assay: Immunoprecipitation of active Gαi and Western blot with anti-Gαi2 antibody in PC3 cells; format: cell-based; details: for activation of Gαi2 (conversion from GDP- to GTP-state): stimulus not given
T1 construct: endogenous in cells; host or cells: PC3 cells
T1 sequence (P04899 whole entry): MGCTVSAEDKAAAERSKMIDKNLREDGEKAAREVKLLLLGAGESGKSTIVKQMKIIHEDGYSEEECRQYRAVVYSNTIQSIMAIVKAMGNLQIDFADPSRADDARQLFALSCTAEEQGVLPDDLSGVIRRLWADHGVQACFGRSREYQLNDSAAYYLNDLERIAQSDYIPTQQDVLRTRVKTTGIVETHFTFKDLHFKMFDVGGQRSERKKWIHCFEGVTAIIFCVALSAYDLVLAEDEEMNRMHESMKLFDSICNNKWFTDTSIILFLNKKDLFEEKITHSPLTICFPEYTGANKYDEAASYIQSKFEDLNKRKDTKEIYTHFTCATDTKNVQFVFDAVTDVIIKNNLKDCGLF
Method: PC3 cells (3×10^6 cell/dish) were incubated with or without inhibitor compound 14 (10 μM) for 30 minutes and then treated with EGF (10 ng/ml) or oxytocin (200 nmol/L) for additional 30 minutes. Cells were lysed in ice-cold cell lysis buffer (Cell Signaling Technology) and snap-frozen in liquid nitrogen. Total cell lysates, containing approximately 1000 μg of proteins, were used for immunoprecipitation. The lysates were incubated with 1 μg of anti-active Gαi antibody, overnight at 4° C. Immunocomplexes were collected by centrifugation after incubation with protein A/G-Sepharose beads for 48 h (Santa Cruz Biotechnology) and were analyzed by Western blot analysis with specific anti-Gαi2 antibody (Abcam).
Western blot analyses were performed. Briefly, protein samples (30-35 μg proteins) were separated on 10% SDS-PAGE gels and transferred to polyvinylidene difluoride (PVDF) membranes (Millipore Corp., Bedford, Massachusetts). After blocking, the membranes were incubated with several primary antibodies, at appropriate dilutions (1:500 for Giα2; 1:3000 for α-tubulin) overnight at 4° C. After washing, the blots were incubated with appropriate secondary antibodies and developed in ECL mixture, using Syngene PXi Imaging System, according to the manufacture's manual. α-tubulin was used as loading control.

DU145 cells = assay: Transwell migration assay in DU145 cells; format: cell-based, human; details: compound 10 μM
Method: as §1
as §2, with “The plates were incubated at 37° C. for 5 hours (DU145, PC3 and SKOV3), 24 hours (E006AA) or 48 hours (MCF7) for migration assays, and 48 hours for invasion assays. After fixation, the cells were stained with 3 ng/ml of DAPI and images of five non-overlapping fields were captured using Axiovert 200M, Carl Zeiss (Thornwood, NY) microscope.” left out

DU145-Gαi2-Q205L cells = assay: Transwell migration assay in DU145 cells overexpressing constitutively active Gαi2 (Gαi2-Q205L); format: cell-based, human
Method: DU145 cells were seeded in 6-well plates at a density of 2.0×10^5 cells per well and transfected with pcDNA3.1-EV and pcDNA3.1-Gαi2-Q205L, using ViaFect™ transfection reagent, according to the manufacturer's protocol. Briefly, media with no antibiotics (200 μl/well) containing 2 μg of plasmids DNA were mixed with the transfection reagent (6 μl/well) and, after 20 minutes, the mixtures were added drop by drop on the cells and the cells were cultured for 48 hours. Then the cells were harvested and used for several assays.
as §2

SKOV3 cells = assay: Transwell migration assay in SKOV3 cells; format: cell-based, human; details: compound 10 μM, EGF 10 ng/ml, 5 hours
Method: (§3) Human breast adenocarcinoma cell line MCF7 and human ovarian adenocarcinoma cell line SKOV3 were obtained from American Type Culture Collection (ATCC) (Rockville, MD) and maintained in Dulbecco's Modified Eagle Medium, supplemented with 5% FBS, in a 5% CO2 environment at 37° C.
as §2, with “After fixation, the cells were stained with 3 ng/ml of DAPI and images of five non-overlapping fields were captured using Axiovert 200M, Carl Zeiss (Thornwood, NY) microscope.” left out

MCF7 cells = assay: Transwell migration assay in MCF7 cells; format: cell-based, human; details: compound 10 μM, 10% FBS, 48 hours
Method: as §3
as §2, with “After fixation, the cells were stained with 3 ng/ml of DAPI and images of five non-overlapping fields were captured using Axiovert 200M, Carl Zeiss (Thornwood, NY) microscope.” left out

[6] = compound 10 μM, EGF 10 ng/ml, 5 hours
[7] = compound 50 μM, in presence of EGF
[8] = compound 100 μM, in presence of EGF

SMILES	cell viability (PC3 cells [1])	cell viability (PC3 cells [2]; compound 50 μM)	cell viability (PC3 cells [2]; compound 100 μM)	migratory capability of PC3 cells (migration index) (PC3 cells [3]; [6])	migratory capability of PC3 cells (migration index) (PC3 cells [3]; [7])	migratory capability of PC3 cells (migration index) (PC3 cells [3]; [8])	migratory capability of PC3 cells (migration index) (PC3 cells [4]; compound 50 μM)	migratory capability of PC3 cells (migration index) (PC3 cells [4]; compound 100 μM)	EGF-induced migration of E006AA cells (E006AA cells)	invasive capability of PC3 cells (invasion index) (PC3 cells [5]; in response to EGF 10 ng/ml)	invasive capability of PC3 cells (invasion index) (PC3 cells [5]; in response to FBS (5%))	levels of active Gαi2 after stimulation with OXT (Gαi2; PC3 cells, OXT 200 nmol/L 30 minutes, compound 14 at 10 μM)	activation of Gαi2 (conversion from GDP- to GTP-state) (Gαi2)	EGF-induced migration of DU145 cells (DU145 cells)	EGF-stimulated cell migration of DU145-Gαi2-Q205L cells (DU145-Gαi2-Q205L cells; compound 10 μM, EGF 10 ng/ml)	basal cell migration of DU145-Gαi2-Q205L cells (DU145-Gαi2-Q205L cells; compound 10 μM, basal)	migration of DU145-Gαi2-Q205L cells (DU145-Gαi2-Q205L cells; stimulus and concentration not stated at the place (FIG. 5B))	migration of SKOV3 cells (SKOV3 cells)	migration of MCF7 cells (MCF7 cells)
C/C(=N\c1ccc(O)cc1)c1sc2ccccc2c1O [Compound 12, (E)-2-(1-((4-hydroxyphenyl)imino)ethyl)benzo[b]thiophen-3-ol, reference compound]	had no effect on cell viability	cytotoxic	cytotoxic	had no effect on the migration	caused a reduction in the migratory capability	caused a reduction in the migratory capability	caused a reduction in the migratory capability	caused a reduction in the migratory capability	–	–	–	–	–	–	–	–	–	–	–
C/C(=N\c1ccc(O)cc1)c1cc2ccccc2n1C [Compound 14, (E)-4-((1-(1-methyl-1H-indol-2-yl)ethylidene)amino)phenol]	had no effect on cell viability; also recorded: did not affect cell viability	cytotoxic	cytotoxic	significantly decreased EGF-induced migratory capability; also recorded: significantly reduced the migratory capability	reduced the migratory capability	reduced the migratory capability	–	–	reduced the EGF-induced migration	significantly reduced; also recorded: inhibited	significantly reduced	the levels of active Gαi2 were reduced	reduced activation of Gαi2; also recorded: impaired activation of Gαi2	reduced the EGF-induced migration	attenuation	attenuation	significantly reduced migration	impaired the migratory capability; also recorded: significantly reduced migration	impaired the migratory capability; also recorded: significantly reduced migration
C/C(=N\c1ccc(O)cc1)c1cc2ccccc2s1 [Compound 13, (E)-4-((1-(benzo[b]thiophen-2-yl)ethylidene)amino)phenol]	had no effect on cell viability; also recorded: did not affect cell viability	cytotoxic	cytotoxic	significantly decreased EGF-induced migratory capability; also recorded: significantly reduced the migratory capability	reduced the migratory capability	reduced the migratory capability	–	–	reduced the EGF-induced migration	–	–	–	impaired activation of Gαi2	reduced the EGF-induced migration	–	–	–	–	–

From US12084418B2, “Small molecule inhibitors of G(alpha)i2 protein and uses thereof” (Clark Atlanta University, Inc., priority 2020, dated 2024)
